Where “and” joins values, the source holds several entries; their conditions need not be identical. Equal entries are not always repeated. No end group written: not given here.
Key:
[1] = test system: CHO cells over-expressing human wild-type APP (CHO/APPwt); experiment: Aβ and sAPPα production in cultured media of CHO/APPwt cells by ELISA (24 hours); assay type: cell-based, Chinese hamster; details: 20 μg/mL
Method: (§1) Cell Culture—Chinese hamster ovary (CHO) cells engineered to express wild-type human APP (CHO/APPwt cells) or Swedish mutant human APP (CHO/APPswe cells) were kindly provided by Dr. Stefanie Hahn and Dr. Sascha Weggen (University of Heinrich Heine, Dusseldorf, Germany). As described previously (Obregon et al., 2012), these cells were cultured in Dulbecco's modified Eagle's medium (DMEM) with 10% fetal bovine serum (FBS), 1 mM sodium pyruvate, and 100 units/mL of penicillin and streptomycin.
To confirm the binding of APPsweBBP with BACE1, CHO/APPwt cells were plated in 8-well chambers (5×10^5/well), incubated with TAT-APPsweBBP-biotin or APPsweBBP-biotin at 20 μM for 30 minutes, fixed with 4% paraformaldehyde for 20 minutes, washed and permeabilized with 0.5% Triton X-100. Following application of blocking buffer, these cells were stained with mouse anti-BACE1 and rabbit anti-biotin antibodies overnight at 4° C. for immunocytochemistry analysis. […] The cultured media were collected for Aβ analysis by enzyme-linked immunosorbent assay (ELISA) and sAPPα analysis by ELISA and Western blot (WB). Cell lysates were also prepared for analysis of APP amyloidogenic processing by WB.
(§2) ELISA—Mouse brains were homogenized in ice-cold lysis buffer for 30 seconds using a Minilys tissue homogenizer (Bertin Technologies, Montigny-le-Bretonneux, France) set at high speed, allowed to stand for 15 minutes at 4° C., and centrifuged at 15,000 rpm for 30 minutes. Soluble Aβ1-40/42 species and sAPPα were directly detected in cultured cell media or brain homogenates using the Aβ1-40/42 (Invitrogen) and sAPPα ELISA kits (IBL-America, Minneapolis, Minn., USA).
(§3) To further examine the ability of the Swedish mutant APP BACE1 binding peptide/Tat fusion peptides to decrease Aβ production, CHO cells overexpressing either human wild-type APP (CHO/APPwt cells) or Swedish mutant APP (hereinafter referred to as “CHO/APPswe cells”) are treated with a variety of APP-based BACE1 inhibitor peptides, as shown in Table 1 and Table 2. Aβ production is determined using ELISA.

[2] = test system: CHO cells over-expressing human Swedish mutant APP (CHO/APPswe); experiment: Aβ and sAPPα production in cultured media of CHO/APPswe cells by ELISA; assay type: cell-based, Chinese hamster; details: 20 μg/mL, 24 hours
Method: as §1
To confirm the binding of APPsweBBP with BACE1, CHO/APPwt cells were plated in 8-well chambers (5×10^5/well), incubated with TAT-APPsweBBP-biotin or APPsweBBP-biotin at 20 μM for 30 minutes, fixed with 4% paraformaldehyde for 20 minutes, washed and permeabilized with 0.5% Triton X-100. Following application of blocking buffer, these cells were stained with mouse anti-BACE1 and rabbit anti-biotin antibodies overnight at 4° C. for immunocytochemistry analysis. In order to determine the inhibitory effects of TAT-APPsweBBP on BACE1-mediated APP β-cleavage and subsequent Aβ production, both CHO/APPwt and CHO/APPswe cells were plated in 24 well-plates (3×10^5/well) and treated with TAT-APPsweBBP at 0-20 μM for 24 hours. The cultured media were collected for Aβ analysis by enzyme-linked immunosorbent assay (ELISA) and sAPPα analysis by ELISA and Western blot (WB). Cell lysates were also prepared for analysis of APP amyloidogenic processing by WB.
as §2, §3

[3] = test system: CHO/APPwt cells; experiment: Aβ production in CHO/APPwt cells by ELISA (Example 1, 4 hours); assay type: cell-based, Chinese hamster; details: 20 μg/mL
Method: To examine the effects of various Swedish Tat fusion peptides on Aβ production, human wild-type amyloid precursor protein (APP) is overexpressed in Chinese hamster ovary cells (hereinafter referred to as CHO/APPwt cells), and the cells are treated with either PBS control (Phosphate buffered saline); Swedish peptide-1 (SwePep-1), […] (also referred herein as “APPsweBBP1”) (SEQ ID NO: 5); Swedish peptide-2 (SwePep-2) (also referred herein as “APPsweBBP”), […] (SEQ ID NO: 1); Swedish Tat fusion peptide-1 (SweTatPep-1), […] (also referred herein as “APPsweBBP/TTD1”) (SEQ ID NO: 6); or Swedish Tat fusion peptide-2 (SweTatPep-2) (also referred herein as “APPsweBBP/TTD2” and “TAT-APPsweBBP”), […] (SEQ ID NO: 3). APPsweBBP is a truncated fragment of APPswe spanning 12 amino acid residues (Glu665-Arg676). TAT, an 11-amino acid-residue protein-transduction domain derived from the HIV-1 transactivator of transcription protein, was conjugated at the C-terminus of APPsweBBP and biotin was conjugated at the N-terminus.
Following treatment, Aβ production is determined utilizing ELISA and the results illustrated in FIG. 1A. SweTatPep-2, SwePep-2, SwePep-1 and SweTatPep-1 each reduce Aβ40,42 by 63-65%, 30-33%, 31-34% and 37-38%, respectively.

[4] = target: T1, BACE1 (Homo sapiens, UniProt P56817); experiment: BACE1 activity assay (FRET, cell-free); assay type: biochemical; set-up: purchased Pan Vera Co., Madison, Wis., USA; details: for % of inhibition (mean ± SD) of BACE1: peptide final concentration 20 μM, 90 minutes, room temperature, 20 µM
T1 sequence (P56817 46-501): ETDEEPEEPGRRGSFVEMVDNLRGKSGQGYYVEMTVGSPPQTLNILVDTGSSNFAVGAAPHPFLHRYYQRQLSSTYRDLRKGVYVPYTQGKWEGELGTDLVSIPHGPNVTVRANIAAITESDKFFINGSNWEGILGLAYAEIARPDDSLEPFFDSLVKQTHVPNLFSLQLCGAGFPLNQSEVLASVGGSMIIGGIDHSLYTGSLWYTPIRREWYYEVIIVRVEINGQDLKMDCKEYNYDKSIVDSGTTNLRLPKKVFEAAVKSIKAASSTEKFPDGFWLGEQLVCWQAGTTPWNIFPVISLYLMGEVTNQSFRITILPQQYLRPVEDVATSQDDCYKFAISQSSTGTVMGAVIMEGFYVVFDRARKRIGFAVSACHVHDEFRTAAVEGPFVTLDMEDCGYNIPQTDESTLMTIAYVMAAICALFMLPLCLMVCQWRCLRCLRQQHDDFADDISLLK
Method: BACE1 Activity Assay—The BACE1 inhibiting activity of APP-based BACE1 site binding peptides were determined using a fluorescence resonance energy transfer (FRET) assay (Pan Vera Co., Madison, Wis., USA), which employs a recombinant baculovirus-expressed BACE1 and a specific substrate (Rh-[…]-quencher) that is based on the APPswe mutation. This specific peptide substrate becomes highly fluorescent upon enzymatic cleavage. A mixture of 10 μL of BACE1 (1.0 U/mL in 50 mM Tris, pH7.5, 10% glycerol), 10 μL of FRET-substrate, and 10 μL of the various APP-based BACE1 site binding peptides (final concentration 20 μM) were incubated for 90 minutes in the dark at room temperature. Then, 10 μL of BACE1 stop buffer (2.5 M sodium acetate) was added to the mixture. Fluorescence was read using a fluorometer, with excitation at 545 nm and emission at 585 nm.
As a required enzyme for the generation of neurotoxic Aβ from APP, BACE1 is well established as an important mediator of AD β-amyloid pathology. As such, it has become an important target for new disease modifying therapeutics. However, since BACE1 also has important physiological roles, abolishment of the enzyme or its activity may lead to deleterious side effects as evidenced by numerous failed clinical trials discussed previously. […] Since previous studies have established a close relationship between α-helix structure and peptide-protein (or protein-protein) interactions (Azzarito, 2013; Rao et al., 2013), several APP based peptides were synthesized that might serve as a preferable substrate for BACE1. Importantly, these peptides were free of the Aβ-containing segment and, thus, cannot be amyloidogenic. In theory, these could be used to “hijack” the BACE1 processing of endogenous APP and lead to a decrease in cerebral Aβ. These BACE1 substrates and controls were incubated with recombinant BACE1 and percent of inhibition of the enzyme was calculated. […] These findings indicate that the α-helical TAT fusion domain may help to promote selective APPsweBBP proteolysis by BACE1, yielding substrate competition against human wild-type APP.

[5] = test system: 5XFAD mice; experiment: WB of BACE1, ADAM10, ADAM17, Akt, phospho-Akt and MBP in brain homogenates of 5XFAD mice; assay type: in vivo, mouse; details: vs TAT and PBS
Method: 5XFAD Mice—Transgenic AD mice [5XFAD; B6SJL-Tg(APPSwF1Lon,PSEN1*M146L*L286V) 6799Vas/Mmjax] at 2.5 months of age were obtained from the Jackson Laboratory (Bar Harbor, Me., USA) and housed and maintained in the Animal Facility of College of Medicine at University of South Florida. The mice at 3.5 months of age were treated with TAT-APPsweBBP, TAT peptide (100 nM/kg in 100 μl PBS) or PBS (100 μl) intraperitioneally (i.p.) daily for eight consecutive weeks. The mice were subjected to behavioral testing after 8 week-treatment and euthanized for immunohistochemical, ELISA and WB analysis after completing behavioral tests. All experiments involving mice were in compliance with the U.S. Department of Health and Human Services Guide for the Care and Use of Laboratory Animals and in accordance with the guidelines of the USF Institutional Animal Care and Use Committee.
Western Blotting (WB) and Analysis—WB analysis was performed as previously described (Modi et al., 2013; Tung et al., 2002). Briefly, the proteins from the various cell-free, cell and brain lysates or homogenates were electrophoretically separated using 10% bicine/tris gel (8 M urea) for proteins less than 5 kD or 10% tricine/tris gels for larger proteins. […]
In addition to cognitive testing, neuronal APP proteolysis was also evaluated by ELISA and WB. […]

[6] = assay type: in vivo, mouse; details: biotin-labeled, 100 nM/kg i.p. daily for 5 days, 4 hours after last injection, 5XFAD mice
Method: In order to determine the BBB permeability of TAT-APPsweBBP, biotin-labeled TAT-APPsweBBP or APPsweBBP (100 nM/kg in 100 μl physiological saline) was intraperitoneally (i.p.) administered daily to 5XFAD mice at 2 months of age for 5 days (n=5, female). The mice were euthanized 4 hours after the last injection and then brain tissues were removed, sectioned and stained with anti-BACE1 and anti-biotin antibodies. Alexa Fluor® 594 donkey anti-rabbit IgG was used to detect the biotin signal and Alexa Fluor® 488 goat anti-mouse IgG was used to detect the BACE1 signal. All images were taken with an Olympus Fluoview FV1000 laser scanning confocal microscope. […] No noticeable differences in biotin distribution were observed between 5XFAD and WT control mice following either biotin-labeled TAT-APPsweBBP or APPsweBBP injection (data not shown).
The hypothesis that TAT-APPsweBBP would more effectively penetrate the BBB compared with APPsweBBP alone was initially tested. 5XFAD mice at 2 months of age (n=5, female) were treated with biotin-labeled TAT-APPsweBBP or APPsweBBP (100 nM/kg, i.p.) daily for 5 days and then euthanized 4 hours after the last injection. Brain tissues were removed, sectioned, and stained with anti-BACE1 and anti-biotin antibodies. […] This highlights the importance of the membrane fusion fragment of the HIV-1 Tat protein (TAT) for cerebral delivery of APPsweBBP.

[7] = test system: γ-secretase; details: Phase 3; cited from earlier work
[8] = target: T1, BACE1; set-up: purchased Pan Vera Co., Madison, Wis., USA; details: phase II clinical trial suspended June 2013; cited from earlier work

Compound	Secreted Aβ40 (ng/mg; mean ± SD) [1] [ng/mg]	Secreted Aβ42 (ng/mg; mean ± SD) [1] [ng/mg]	Secreted sAPPα (ng/mg; mean ± SD) [1] [ng/mg]	Secreted Aβ40 (ng/mg; mean ± SD) [2] [ng/mg]	Secreted Aβ42 (ng/mg; mean ± SD) [2] [ng/mg]	Secreted sAPPα (ng/mg; mean ± SD) [2] [ng/mg]	reduction of Aβ40,42 [3]	further results
EISEVNLDAEFR (listed as Homo sapiens) [APPsweBBP2]	7.01 ± 1.02	0.73 ± 0.034	5201.64 ± 119.63	41.41 ± 8.43	6.54 ± 0.85	253.56 ± 20.11	30-33%	% of inhibition (mean ± SD) of BACE1 [4]: ~40% and 38.43%
IKTEEISEVNLDAEFR (listed as Homo sapiens) [APPsweBBP1]	9.67 ± 0.84	1.07 ± 0.054	4711.83 ± 201.45	57.23 ± 11.65	9.01 ± 1.07	211.43 ± 18.31	31-34%	–
YGRKKRRQRRRIKTEEISEVNLDAEFR (human-virus fusion) [APPsweBBP/TTD1]	8.93 ± 0.82	0.95 ± 0.037	4901.54 ± 211.54	–	7.98 ± 0.81	236.32 ± 13.09	37-38%	–
YGRKKRRQRRREISEVNLDAEFR [APPsweBBP/TTD2]	–	–	–	–	–	–	–	total Akt, phosphorylated Akt and MBP expression levels in brain homogenates [5]: did not differ; BBB penetration [6]: highly penetrated the BBB; % of inhibition (mean ± SD) of BACE1 ([4]; listed as TAT-APPswe^bBBP): 93.23 ± 2.73%; inhibition at 20 µM ([4]; read-out: % of inhibition (mean ± SD) of BACE1, peptide final concentration 20 μM, 90 minutes, room temperature): > 90%
CC(C)[C@H](O)C(=O)N[C@@H](C)C(=O)N[C@@H]1C(=O)N(C)CCc2ccccc21 [semagacestat]	–	–	–	–	–	–	–	activities of daily living and cognition in treated patients [7]: worsened
NC1=N[C@@]2(c3cc(NC(=O)c4ccc(F)cn4)ccc3F)COC[C@H]2CS1 [LY2886721]	–	–	–	–	–	–	–	reason for trial suspension [8]: possible liver toxicity

From patent US9926354B2, “Amyloid precursor protein (APP) based Ã#-secretase inhibitor peptides, and methods of use” (UNIVERSITY OF SOUTH FLORIDA, priority 2014, dated 2018)
